This note sets out measurements from ChEMBL document CHEMBL1759996, “Design and synthesis of pyridin-2-yloxymethylpiperidin-1-ylbutyl amide CCR5 antagonists that are potent inhibitors of M-tropic (R5) HIV-1 replication” (Bioorg Med Chem Lett, 2011).

As a reminder, the IC50 is the point on the concentration scale where inhibition reaches its midpoint. The term CC50 denotes the concentration giving 50% cytotoxicity. Read a high CC50 as lower toxicity to the cells. The term Cmax denotes the maximum level reached in the sampled fluid or tissue. In general, AUC(0-inf) refers to the area under the concentration-time curve extrapolated to infinity. Higher therefore signals more exposure. By clearance is commonly meant a measure of how efficiently the substance is removed, as volume per time. By half-life is commonly meant how long it takes for the measured level to halve. Read a high half-life as slow decline. One may read the bioavailability as dose-corrected exposure relative to a reference, in per cent. The low end stands for little systemic uptake, the high end for much systemic uptake.

Data set [1] deals with C-C chemokine receptor type 5 (Homo sapiens, UniProt P51681). The experiment in a line: Displacement of […] from CCR5 expressed in HEK293F cells. It counts as cell-based.
Sequence of C-C chemokine receptor type 5 (P51681 whole entry): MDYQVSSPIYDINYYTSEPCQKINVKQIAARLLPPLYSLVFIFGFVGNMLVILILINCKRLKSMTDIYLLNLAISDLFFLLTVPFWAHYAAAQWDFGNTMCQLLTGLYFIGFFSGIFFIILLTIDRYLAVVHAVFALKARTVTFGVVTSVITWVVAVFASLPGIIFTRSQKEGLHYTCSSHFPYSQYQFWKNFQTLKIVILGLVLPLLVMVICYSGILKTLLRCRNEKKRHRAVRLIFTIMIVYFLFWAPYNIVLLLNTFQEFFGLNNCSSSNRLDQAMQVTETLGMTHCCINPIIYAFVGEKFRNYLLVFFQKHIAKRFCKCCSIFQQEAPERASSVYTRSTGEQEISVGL
Data set [2] relates to Human immunodeficiency virus 1. Briefly: Antiviral activity against Human immunodeficiency virus 1 BAL infected in human PBMC assessed as inhibition of viral replication by p24 antigen specific ELISA. It counts as functional, organism-based. A general note: ELISA stands for enzyme-linked immunosorbent assay.
Data set [3] is described as follows: Cytotoxicity against human PBMC. The format is cell-based.
Data set [4] in a line: Cmax in rat. It counts as ADME, organism-based. The conditions noted are these: in vivo.
Data set [5] in a line: AUC (0 to infinity) in rat. It counts as ADME, organism-based. On the set-up: time infinity. To be noted: plasma.
A short description of data set [6]: Clearance in rat at 10 umol/kg, iv. The conditions noted are these: in vivo. It counts as ADME, organism-based.
Data set [7] can be described thus: Volume of distribution at steady state in rat at 10 umol/kg, iv. It counts as ADME, organism-based. To be noted: in vivo, read-out: Vdss.
Data set [8] is described as follows: Half life in rat at 10 umol/kg, iv. It counts as ADME, organism-based. The conditions noted are these: in vivo.
A short description of data set [9]: Oral bioavailability in rat at 100 umol/kg. It counts as ADME, organism-based. The conditions noted are these: in vivo.
Data set [10] can be described thus: Cmax in dog. It counts as ADME, organism-based, Canis lupus familiaris. The conditions noted are these: in vivo.
Data set [11] is described as follows: AUC (0 to infinity) in dog. It counts as ADME, organism-based, Canis lupus familiaris. The conditions noted are these: plasma. Also on record: time infinity.
A short description of data set [12]: Clearance in dog at 5 umol/kg, iv. It counts as ADME, organism-based, Canis lupus familiaris. To be noted: in vivo.
Data set [13] can be described thus: Volume of distribution at steady state in dog at 5 umol/kg, iv. The format is ADME, organism-based, Canis lupus familiaris. The conditions noted are these: in vivo, read-out: Vdss.
Data set [14] in a line: Half life in dog at 5 umol/kg, iv. The format is ADME, organism-based, Canis lupus familiaris. To be noted: in vivo.
A short description of data set [15]: Oral bioavailability in dog at 12.5 umol/kg. The format is ADME, organism-based, Canis lupus familiaris. The conditions noted are these: in vivo.

For `CCO/N=C(/c1ccc(Br)cc1)C1CCN(C2(C)CCN(C(=O)c3c(C)cc[n+]([O-])c3C)CC2)CC1` [SCHERING C], the results for the IC50 in data set [1] and in data set [2] were 0.04 µM and 0.16 µM, respectively. In data set [3], this molecule returned a CC50 greater than 1.6 µM. The molecule further came in with a Cmax in [4] of 1.6 µM. The molecule further displayed an AUC(0-inf) in data set [5] of 4300 nM·h. In addition, the clearance in [6] is 1.9 L/h/kg. Moreover, the Vd in data set [7] came out at 7.2 L/kg. Further, the half-life in data set [8] was 2.7 h. In addition, the bioavailability in [9] is 48%.
As to `CC(CCNC(=O)c1c(Cl)cncc1Cl)N1CCC(C(Oc2cccc(Cl)n2)c2ccc(C(F)(F)F)cc2)CC1` (mixture of isomers), the results for the IC50 in data set [1] and in data set [2] were 0.02 µM and 0.009 µM, respectively. In addition, the cytotoxic concentration (CC50) in data set [3] was greater than 32.5 µM. For the same molecule, the Cmax in [4] worked out at 0.2 µM; in [10], 0.1 µM. Also, the AUC(0-inf) came to 2400 nM·h in data set [5] and 500 nM·h in data set [11]. In addition, the clearance in data set [6] stood at 8.5 L/h/kg; in data set [12], 1.9 L/h/kg. For the same molecule, the Vd in data set [7] was 15.2 L/kg; in data set [13], 20.8 L/kg. Besides, the results for the half-life in data set [8] and in [14] were 1.2 h and 7.7 h, respectively. The results for the bioavailability in data set [9] and in data set [15] were 20% and 6%, respectively.
As to `CCO/N=C(/c1ccc(Br)cc1)C1CCN(C(C)CNC(=O)c2c(C)cc[n+]([O-])c2C)CC1` (configuration not stated), the results for the IC50 in data set [1] and in data set [2] were 17 µM and greater than 36.4 µM, respectively. Further, the CC50 in [3] worked out at 182 µM.
